Laboratory results taken from paper PMC8131363 (Scientific Reports, 2021).
Where two headings read alike, the source gives them in different places.

Experiments:
[1] = biological target: T1, cCaSR (Felis catus, UniProt C7FF08); test: cCaSR PAM luminescence assay, double injection with 0.5 mM CaCl2, HEK293/T-REx/natClytin-cCaSR
T1 sequence (C7FF08 1-1081): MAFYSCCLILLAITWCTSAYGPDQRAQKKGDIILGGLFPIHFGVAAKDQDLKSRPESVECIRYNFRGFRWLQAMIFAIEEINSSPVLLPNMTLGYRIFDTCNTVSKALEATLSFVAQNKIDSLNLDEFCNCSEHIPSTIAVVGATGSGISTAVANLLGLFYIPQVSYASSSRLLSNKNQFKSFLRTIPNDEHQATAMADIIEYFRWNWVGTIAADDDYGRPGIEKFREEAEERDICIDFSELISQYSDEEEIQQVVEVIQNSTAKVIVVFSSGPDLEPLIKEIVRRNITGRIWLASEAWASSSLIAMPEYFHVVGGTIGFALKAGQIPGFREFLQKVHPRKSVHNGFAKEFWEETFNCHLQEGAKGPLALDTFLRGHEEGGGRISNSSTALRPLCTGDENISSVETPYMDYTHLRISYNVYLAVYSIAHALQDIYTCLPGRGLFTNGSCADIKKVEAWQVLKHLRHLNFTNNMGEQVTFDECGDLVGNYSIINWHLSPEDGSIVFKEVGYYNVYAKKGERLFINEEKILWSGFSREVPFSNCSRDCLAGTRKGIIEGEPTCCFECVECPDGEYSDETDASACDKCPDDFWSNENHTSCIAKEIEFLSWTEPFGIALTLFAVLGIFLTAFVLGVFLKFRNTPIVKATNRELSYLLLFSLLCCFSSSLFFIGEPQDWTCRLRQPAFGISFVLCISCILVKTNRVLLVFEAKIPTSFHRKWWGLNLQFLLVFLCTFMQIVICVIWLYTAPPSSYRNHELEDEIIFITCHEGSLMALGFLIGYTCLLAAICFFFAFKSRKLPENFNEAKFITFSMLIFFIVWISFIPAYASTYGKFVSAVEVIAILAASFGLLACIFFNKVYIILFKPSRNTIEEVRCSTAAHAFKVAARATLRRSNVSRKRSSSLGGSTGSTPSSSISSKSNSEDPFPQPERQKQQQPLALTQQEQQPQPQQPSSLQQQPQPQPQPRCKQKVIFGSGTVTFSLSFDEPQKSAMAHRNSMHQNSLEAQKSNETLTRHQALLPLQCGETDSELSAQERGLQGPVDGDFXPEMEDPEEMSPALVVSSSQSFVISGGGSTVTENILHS

[2] = biological target: T1, cCaSR
[3] = Supplementary Table I, PAM assay, dash = no activity
[4] = Supplementary Table I, agonist assay, dash = no activity
[5] = agonist assay, stable inducible cCaSR line, > 0.01 M = maximal response not reached
[6] = read-out: EC50 Ago, Supplementary Table I, agonist assay, > 0.01 M = maximal response not reached
[7] = read-out: EC50 PAM, Supplementary Table I, positive allosteric modulator, presence of Ca2+

Row | EC50 PAM (M) [1, 3] | EC50 Ago (M) [2, 4] | Compound | also measured
1 | - | - | CCOC(=O)CNC(=O)[C@H](CS)NC(=O)CC[C@H](N)C(=O)O [γ-Glu-Cys-Gly-Oet] | 
2 | - |  | NCCCNCCCCNCCCN [Spermine] | agonist activity on cCaSR (in words) [2]: agonists
3 | - |  | O=P(O)(O)CP(=O)(O)O [Methylenediphosphonic acid] | EC50 [2, 5]: 1290 µM; EC50 [2, 6]: 1290 µM
4 |  |  | [Ba+2].[Cl-].[Cl-] [Ba^2+, Barium chloride dihydrate] | EC50 [2]: 1170 µM; EC50 ([2]; read-out: EC50 Ago): 1170 µM; EC50 ([2]; read-out: cCaSR activity): 1000 to 10000 µM
5 | - | - | COC(=O)CC[C@H](N)C(=O)O [L-Glutamic Acid 5-Methyl Ester] | 
6 | - |  | C[C@@H](O)C(=O)SC[C@H](NC(=O)CC[C@H](N)C(=O)O)C(=O)NCC(=O)O [S-Lactoylglutathione] | 
7 | - | - | CC(C)C1NC(C(=O)O)Cc2c1[nH]c1ccccc21 (stereo not drawn) [1-isopropyl-2,3,4,9-tetrahydro-1H-pyrido[3,4-b]indole-3-carboxylic acid] | 
8 |  |  | N=C(N)NCCC[C@H](N)C(=O)O [L-Arginine] | EC50 PAM (M) [1]: -; EC50 Ago (M) [2]: -
9 | - | - | C1N2CN3CN1CN(C2)C3 [Hexamethylenetetramine] | 
10 | - | - | N[C@@H](CSSC[C@H](N)C(=O)O)C(=O)O [Cystine (disufide)] | 
11 |  |  | NCCNCCNCCN [Triethylenetetramine] | EC50 Ago (M) [2]: -
12 |  | - | CC(NC1CCc2c(F)cc(Br)cc21)c1ccncc1 (stereo not drawn) [Enamine Screening - Z1436888168] | EC50 [1, 7]: 45.7 µM
13 | - |  | NC[C@@H]1O[C@H](O[C@H]2[C@@H](O)[C@H](O[C@@H]3[C@@H](O)[C@H](N)C[C@H](N)[C@H]3O[C@H]3O[C@H](CN)[C@@H](O)[C@H](O)[C@H]3N)O[C@@H]2CO)[C@H](N)[C@@H](O)[C@@H]1O [Neomycin, reference compound] | 
14 |  | - | COc1cc(C(O)(c2nc3ccccc3s2)C(F)(F)F)c(OC)cc1N (stereo not drawn) [Enamine Screening - Z317045236] | EC50 [1, 7]: 2.42 µM
15 | - | - | O=C(O)[C@@H]1CCCN1 [L-Proline] | 
16 | - | - | Poly-L-histidine | 
17 | - | - | CN(C)C(N)=NCCC[C@H](N)C(=O)O.Cl.Cl [NG,NG-Dimethylarginine dihydrochloride] | 
18 | - | - | CO[C@H]1[C@H](O)[C@@H](CO)OC(O)[C@@H]1O (stereo partly drawn) [3-O-Methyl-D-glucopyranose] | 
19 | - |  | N[C@@H](CCC(=O)N[C@@H](CCC(=O)O)C(=O)N[C@@H](CCC(=O)O)C(=O)O)C(=O)O [γ-Glu-Glu-Glu] | 
20 | - | - | COc1ccc(C2C(CNC(C)c3ccncc3)CCN2C)cc1 (stereo not drawn) [Enamine Screening - Z1563602968] | 
21 | - |  | O=S(=O)([O-])C(F)(F)F.O=S(=O)([O-])C(F)(F)F.O=S(=O)([O-])C(F)(F)F.[Pr+3] [Pr^3+, Praseodymium(III) trifluoromethanesulfonate] | EC50 [2, 5]: 398 µM; EC50 [2, 6]: 398 µM; EC50 ([2]; read-out: cCaSR activity, agonist assay, stable inducible cCaSR line, at least three wells): < 1000 µM
22 | - | - | N[C@@H](CCO)C(=O)O [L-Homoserine] | 
23 |  | - | C[C@@H](NCCCc1cccc(C(F)(F)F)c1)c1cccc2ccccc12 [Cinacalcet, reference compound] | EC50 [1]: 0.746 µM

Row | EC50 PAM (M) [1, 3] | EC50 Ago (M) [2, 4] | Compound | also measured
24 | - | - | N[C@@H](CCC(=O)N[C@@H](Cc1cnc[nH]1)C(=O)O)C(=O)O [γ-Glu-His] | 
25 | - | - | O=C([O-])[O-].O=C([O-])[O-].O=C([O-])[O-].[Ce+3].[Ce+3] [Cerium(III) carbonate] | 
26 | - | - | CC(C)[C@H](N)C(=O)O [L-Valine] | 
27 | - | - | NCCCC[C@H](NC(=O)C[C@H](N)C(=O)O)C(=O)O [β-Asp-Lys] | 
28 |  | - | CC(NCC1Cc2ccccc2O1)c1ccc2ccccc2n1 (stereo not drawn) [Enamine Screening - Z1437387381] | EC50 [1, 7]: 9.01 µM
29 | - | - | NC[C@H]1O[C@H](O[C@H]2[C@H](O)[C@@H](O[C@H]3O[C@H](CO)[C@@H](O)[C@H](N)[C@H]3O)[C@H](N)C[C@@H]2N)[C@H](O)[C@@H](O)[C@@H]1O [Kanamycin solution, Kanamycin, reference compound] | 
30 | - | - | N[C@@H](Cc1ccc(O)cc1)C(=O)O [L-Tyrosine] | 
31 | - | - | O.O.O.O.O.O.O.O.O.O.O=P([O-])([O-])OP(=O)([O-])[O-].[Na+].[Na+].[Na+].[Na+] [Sodium pyrophosphate tetrabasic decahydrate] | 
32 | - | - | NCC(=O)O [Glycine] | 
33 | - | - | OC[C@H]1O[C@H](O[C@]2(CCl)O[C@H](CCl)[C@@H](O)[C@@H]2O)[C@H](O)[C@@H](O)[C@H]1Cl [Sucralose] | 
34 | - | - | N[C@@H](Cc1c[nH]cn1)C(=O)O [L-Histidine] | 
35 | - | - | NCCC[C@H](N)C(=O)O [L-Ornithine] | 
36 | - |  | NC(=O)CC[C@H](NC(=O)[C@H](CCC(=O)O)NC(=O)CC[C@H](N)C(=O)O)C(=O)O [γ-Glu-Glu-Gln] | 
37 |  | - | C[C@@H](NCc1cc2ccccc2[nH]1)c1cccc2ccccc12 [Calindol, reference compound] | 
38 | - | - | CC(C)C[C@H](N)C(=O)O [L-Leucine] | 
39 | - | - | O=P(O)(O)C(Cl)(Cl)P(=O)(O)O [Dichloromethylenediphosphonic acid] | 
40 |  |  | O.O.[Ba+2].[Cl-].[Cl-] [Ba^2+, Barium chloride dihydrate] | EC50 PAM (M) [1]: -
41 | - |  | N[C@]1(C(=O)O)C[C@H](C(=O)O)C1 [1s,3s-1-aminocyclobutane-1,3-dicarboxylic acid] | 
42 |  | - | Cc1ccc(C(C)NC(C)c2cc3ccccc3[nH]2)cc1C (stereo not drawn) [Enamine Screening - Z1592615858] | EC50 [1, 7]: 1.92 µM
43 |  | - | COC(=O)C(NC1CCc2c(F)cccc21)c1cccc(C#N)c1 (stereo not drawn) [Enamine Screening - Z1362199910] | EC50 [1, 7]: 58.9 µM
44 | - |  | Poly-L-ornithine | 
45 |  | - | Cc1ccc(C(C)(O)c2nc3ccccc3s2)c(C)c1 (stereo not drawn) [AC-265347, reference compound] | 

Row | Compound | EC50 PAM (M) [1, 3] | EC50 Ago (M) [2, 4] | also measured
46 | NC(N)=NCCC[C@@H](N)C(=O)O [D-Arginine] | - | - | 
47 | N[C@@H](CO)C(=O)O [L-Serine] | - | - | 
48 | Cc1ccc(C2(CCNC(C)c3ccc(Cl)cc3)CCOC(C)(C)C2)cc1 (stereo not drawn) [Vitas M Labs Express Pick - STK530456] |  | - | EC50 [1, 7]: 26.1 µM
49 | N[C@@H](CCP(=O)(O)O)C(=O)O [L-2-Amino-4-phosphonobutyric acid] | - | - | 
50 | N[C@H](CCC(=O)O)C(=O)O [D-Glutamic acid] | - | - | 
51 | CN[C@H]1C[C@@H](N)[C@H](O)[C@@H](O[C@@H]2O[C@H](CO)[C@H](O)[C@@H]3OC4(O[C@H]23)O[C@H]([C@@H](N)CO)[C@H](O)[C@H](O)[C@H]4O)[C@@H]1O (stereo partly drawn) [Hygromycin B, reference compound] | - | - | 
52 | OC[C@H]1OC(O)[C@H](O)[C@@H](O)[C@@H]1O (stereo partly drawn) [D-( +)-Glucose, D-(+)-Glucose] | - | - | 
53 | N[C@@H](CCCCNC(=O)CC[C@H](N)C(=O)O)C(=O)O [γ-Glu-Lys] | - | - | 
54 | NCCCC[C@@H](N)C(=O)O [D-Lysine] | - | - | 
